In patent US5232923A, “Catechol derivatives and pharmaceutical preparations containing same” (Mitsui Toatsu Chemicals, Incorporated, priority 1988, dated 1993):
Where two headings read alike, the source gives them in different places.

Assays:
[1] = test system: production and secretion of NGF in mouse L-M cells; assay: Promoting activity for the production and secretion of NGF in mouse L-M cells (ELISA of medium after 24 h); assay type: cell-based; conditions: L-M cells; for fold induction at 400 µM / fold induction at 200 µM: Mus musculus, 24 h, fold increase over control (1.00); for fold induction at 400 µM / NGF L-M Cell Concentration: Table 5, 0.4 mM; for fold induction at 400 µM: read-out: NGF L-M Cell Increase Ratio; for NGF L-M Cell Concentration / NGF Concentration: 24 hours; for NGF L-M Cell Concentration: control 0.87; for fold induction at 200 µM / NGF Concentration: sample concentration 0.2 mM; for fold induction at 200 µM: read-out: NGF Increase Ratio; for NGF Concentration: mean of four determinations
Method: Promoting activity for the production and secretion of NGF in mouse L-M cells
The medium was cultured for 3 days at a temperature of 37° C. […] The sample of the derivative tested is contained in the medium at a prescribed concentration as illustrated in the Tables. […] Data are expressed as fold increase in NGF content of the medium over that cultivated in the absence of the derivative to be tested. […] Data are presented as the mean of four determinations. The results are illustrated in Tables 1-5.

[2] = test system: production and secretion of NGF in mouse brain astroglial cells; assay: Promoting activity for the production and secretion of NGF in mouse brain astroglial cells (ELISA of medium after 24 h); assay type: cell-based; conditions: for fold induction at 400 µM / fold induction at 200 µM: Mus musculus, 24 h; for NGF Astroglial Cell Concentration / NGF Concentration: 24 hours; for NGF Astroglial Cell Concentration: control 31.8
Method: Promoting activity for the production and secretion of NGF in mouse brain astroglial cells
The experiment was performed by inducing astroglial cells from the mouse forebrain to a culture system according to the procedures of S. Furukawa et al. which is described in Biochem. Biophys. Res. Commun., 136, 57-63 (1986).
Forebrains of 8-days old mice were dissected out and cut into small pieces. The pieces were washed with calcium- and magnesium-free phosphate-bufferedsaline (hereinafter abbreviated as PBS), treated with 0.25% trypsin containing PBS at 37° C. for 30 minutes and triturated with a Pasteur pipet to give a suspension. Cells and cell clumps were recovered by centrifugation at 200 xg for 5 minutes. They were cultured in Dulbecco modified Eagle's medium (a product of Gibco Co. hereinafter abbreviated as DMEM) containing 10% fetal calf serum, 50 μ units/ml of penicillin, and 50 μg/ml of streptomycin, for 10 to 14 days with medium changes every 3 days. After completing confluency, the cells were dissociated by trypsin treatment and recultured in new culture flasks. This procedure was repeated further twice and more. The culture became a uniform cell cluster. The cell cluster for use in this invention can be stained not less than 97% in accordance with the PAP staining method (peroxidase/[…] staining method) using anti-human glial fibrillar acidic protein (GFAP) rabbit antiserum. The cells will hereinafter be referred to as astroglial cells.
Astroglial cells were innoculated in 24-well plates having a well surface area of 2.1 cm^2 (a product of Falcon Co.) at a cell density of about 3×10^4 cells/well and cultured for 3 days in DMEM medium supplemented with 10% of fetal calf serum. After completing confluency about ([…]), the medium was changed to DMEM medium (0.5 ml/well) supplemented with 0.5% of bovine serum albumin (fraction V) and cultured for 3 days. The culture was further continued with medium changes every 3 days. After cells were practically synchronized in the quiscent stage, the medium was changed to 0.5 ml of the same medium and containing a prescribed concentration of test sample as illustrated in the Tables. NGF in the medium after cultivating for 24 hours was determined by the ELISA as mentioned above. Data are expressed as fold increase in NGF content over that in the absence of the test sample. The lower detection limit of the ELISA is 0.25 pg/ml and the NGF content of control medium was normally 1-10 pg/0.5 ml/well. Data are presented as the mean of four determinations. The results are illustrated in Tables 1-5.

[3] = Table 5, 0.4 mM, fold increase over control (1.00), read-out: NGF Astroglial Cell Increase Ratio
[4] = Table 3, sample concentration 0.4 mM, fold increase over control (1.00), read-out: NGF Increase Ratio
[5] = Table 3, sample concentration 0.4 mM, control 42.3
[6] = Table 4, sample concentration 0.2 mM, fold increase over control, read-out: NGF Increase Ratio
[7] = Table 4, sample concentration 0.2 mM
[8] = Table 4, sample concentration 0.4 mM, fold increase over control, read-out: NGF Increase Ratio
[9] = Table 4, sample concentration 0.4 mM
[10] = Table 3, sample concentration 0.2 mM, fold increase over control (1.00), read-out: NGF Increase Ratio
[11] = Table 3, sample concentration 0.2 mM, control 42.3

Row | Structure (SMILES) | fold induction at 400 µM [1] | NGF L-M Cell Concentration [1] | fold induction at 400 µM [2, 3] | NGF Astroglial Cell Concentration ([2]; Table 5, 0.4 mM) | fold induction at 200 µM ([1]; Table 2) | NGF Concentration ([1]; Table 2, control 0.34) | other results
1 | CCCCNC(=O)CCc1ccc(O)c(O)c1 [Compound 84, N-n-Butyl-3,4-dihydroxyphenylpropionamide] | 6.2 | 5.39 ng/well | 33.1 | 539.5 ng/well |  |  | 
2 | CCCCN(C)CCc1ccc(O)c(O)c1 [Compound 32] |  |  |  |  |  |  | fold induction at 400 µM [2, 4]: 4.82; NGF Concentration [2, 5]: 203.8 ng/well
3 | COC(=O)[C@@H]1CCCN1C(=O)CCc1ccc(O)c(O)c1 [Compound 103, N-[3-(3,4-dihydroxyphenyl)propionyl]-L-proline methyl ester] | 4.3 | 3.74 ng/well | 6.3 | 200.3 ng/well |  |  | 
4 | CCOC(=O)CCCc1ccc(O)c(O)c1 [Compound 43] |  |  |  |  | 5.53 | 1.88 ng/well | fold induction at 200 µM [2, 6]: 4.59; NGF Concentration [2, 7]: 198.5 ng/well
5 | CCCCCNC(=O)CCc1ccc(O)c(O)c1 [Compound 86, N-n-Pentyl-3,4-dihydroxyphenylpropionamide] | 6.5 | 5.66 ng/well | 30.3 | 493.9 ng/well |  |  | 
6 | CCCCCCNC(=O)CCc1ccc(OC(C)=O)c(OC(C)=O)c1 [Compound 88, N-n-Hexyl-3,4-diacetoxyphenylpropionamide] | 6.2 | 5.39 ng/well | 15.8 | 257.5 ng/well |  |  | 
7 | CCCCOC(=O)CCc1ccc(OC(C)=O)c(OC(C)=O)c1 [Compound 49] |  |  |  |  | 6.29 | 2.14 ng/well | fold induction at 400 µM [2, 8]: 5.18; NGF Concentration [2, 9]: 223.7 ng/well
8 | CCCC(=O)NCCc1ccc(OC(C)=O)c(OC(C)=O)c1 [Compound 15] |  |  |  |  |  |  | fold induction at 200 µM ([1]; Table 1): 8.94; NGF Concentration ([1]; Table 1, control 0.33): 2.95 ng/well; fold induction at 200 µM [2, 10]: 3.74; NGF Concentration [2, 11]: 158.2 ng/well
9 | CN1CCN(C(=O)CCc2ccc(O)c(O)c2)CC1 [Compound 100, N-Methyl-N'-[3-(3,4-dihydroxyphenyl)propionyl]piperazine] | 5 | 4.35 ng/well | 8.2 | 260.8 ng/well |  |  | 
10 | O=C(CCc1ccc(O)c(O)c1)N1CCCCC1 [Compound 97, N-[3-(3,4-Dihydroxyphenyl)propionyl]piperidine] | 6.2 | 5.39 ng/well | 13.7 | 435.7 ng/well |  |  | 
11 | CCCCCCCCCCCCCCCCCCNC(=O)CCc1ccc(O)c(O)c1 [Compound 91, N-Stearyl-3,4-dihydroxyphenylpropionamide] | 4.1 | 3.57 ng/well | 5.2 | 84.8 ng/well |  |  | 
12 | CCOC(=O)CCCc1ccc(OC(C)=O)c(OC(C)=O)c1 [Compound 55] |  |  |  |  | 5.82 | 1.98 ng/well | fold induction at 400 µM [2, 8]: 4.39; NGF Concentration [2, 9]: 189.7 ng/well
13 | CC(=O)NCCCc1ccc(OC(C)=O)c(OC(C)=O)c1 [Compound 17] |  |  |  |  |  |  | fold induction at 200 µM ([1]; Table 1): 8.64; NGF Concentration ([1]; Table 1, control 0.33): 2.85 ng/well; fold induction at 200 µM [2, 10]: 4.27; NGF Concentration [2, 11]: 180.6 ng/well
14 | CCNC(=O)Cc1ccc(O)c(O)c1 [Compound 64] |  |  |  |  | 5.32 | 1.81 ng/well | fold induction at 200 µM [2, 6]: 4.65; NGF Concentration [2, 7]: 200.8 ng/well
15 | CC(=O)NCCc1ccc(O)c(O)c1 [Compound 1, N-Acetyl-3,4-dihydroxyphenethylamine] |  |  |  |  |  |  | fold induction at 200 µM ([1]; Table 1): 9.24; NGF Concentration ([1]; Table 1, control 0.33): 3.05 ng/well; fold induction at 400 µM [2, 4]: 4.94; NGF Concentration [2, 5]: 208.8 ng/well
16 | CCOC(=O)Cc1ccc(O)c(O)c1 [Compound 39] |  |  |  |  | 5.24 | 1.78 ng/well | fold induction at 200 µM [2, 6]: 4.86; NGF Concentration [2, 7]: 210.1 ng/well
17 | CCCCN(C)CCc1ccc(OC(C)=O)c(OC(C)=O)c1 [Compound 33] |  |  |  |  |  |  | fold induction at 400 µM [2, 4]: 4.74; NGF Concentration [2, 5]: 200.6 ng/well
18 | CC(=O)Oc1ccc(CCC(=O)N(C)C)cc1OC(C)=O [Compound 81] |  |  |  |  | 5.76 | 1.96 ng/well | fold induction at 400 µM [2, 8]: 6.33; NGF Concentration [2, 9]: 273.5 ng/well
19 | CN(Cc1ccccc1)C(=O)CCc1ccc(O)c(O)c1 [Compound 94, N-Methyl N-benzyl-3,4-dihydroxyphenylpropionamide] | 5.1 | 4.44 ng/well | 5.2 | 84.8 ng/well |  |  | 
20 | CCOC(=O)C1CCCN(C(=O)CCc2ccc(O)c(O)c2)C1 (stereo not shown) [Compound 104, Ethyl N-[3-(3,4-dihydroxyphenyl)propionyl]nipecotinate] | 5.7 | 4.96 ng/well | 7.8 | 248.0 ng/well |  |  | 
21 | O=C(CCc1ccc(O)c(O)c1)NC12CC3CC(CC(C3)C1)C2 [Compound 96, N-Adamantyl-3,4-dihydroxyphenylpropionamide] | 5.7 | 4.96 ng/well | 18 | 293.4 ng/well |  |  | 
22 | CCCC(=O)N(C)CCc1ccc(O)c(O)c1 [Compound 12] |  |  |  |  |  |  | fold induction at 200 µM ([1]; Table 1): 9.15; NGF Concentration ([1]; Table 1, control 0.33): 3.02 ng/well; fold induction at 400 µM [2, 4]: 4.89; NGF Concentration [2, 5]: 206.7 ng/well
23 | CCCCNCCCc1ccc(O)c(O)c1 [Compound 29] |  |  |  |  |  |  | fold induction at 200 µM ([1]; Table 1): 8.73; NGF Concentration ([1]; Table 1, control 0.33): 2.88 ng/well; fold induction at 400 µM [2, 4]: 4.26; NGF Concentration [2, 5]: 180.3 ng/well
24 | CCOC(=O)Cc1ccc(OC(C)=O)c(OC(C)=O)c1 [Compound 51] |  |  |  |  | 5.82 | 1.98 ng/well | fold induction at 400 µM [2, 8]: 4.5; NGF Concentration [2, 9]: 194.6 ng/well
25 | O=C(CCc1ccc(O)c(O)c1)N1CCOCC1 [Compound 99, N-[3-(3,4-Dihydroxyphenyl)propionyl]morpholine] | 4.8 | 4.18 ng/well | 5.2 | 165.4 ng/well |  |  | 
26 | NC(=O)CCc1ccc(O)c(O)c1 [Compound 58] |  |  |  |  | 5.53 | 1.88 ng/well | fold induction at 200 µM [2, 6]: 5.32; NGF Concentration [2, 7]: 230.0 ng/well
27 | CCNC(=O)CCc1ccc(O)c(O)c1 [Compound 60] |  |  |  |  | 5.41 | 1.84 ng/well | fold induction at 200 µM [2, 6]: 6.95; NGF Concentration [2, 7]: 300.4 ng/well
28 | CC(=O)NCCCc1ccc(O)c(O)c1 [Compound 7] |  |  |  |  |  |  | fold induction at 200 µM ([1]; Table 1): 8.52; NGF Concentration ([1]; Table 1, control 0.33): 2.81 ng/well; fold induction at 400 µM [2, 4]: 4.46; NGF Concentration [2, 5]: 188.5 ng/well
29 | CCCCNC(=O)CCc1ccc(O)c(O)c1 [Compound 82] |  |  |  |  |  |  | fold induction at 200 µM [2, 6]: 8.35; NGF Concentration [2, 7]: 360.9 ng/well
30 | CCCCNC(=O)CCc1ccc(OC(C)=O)c(OC(C)=O)c1 [Compound 83] |  |  |  |  |  |  | fold induction at 400 µM [2, 8]: 8.82; NGF Concentration [2, 9]: 381.2 ng/well
